*1 amine or outer side, *2 acyl side, *3 side chain or, on linkers, in order; H or OH if unused. Where a SMILES comes first, the peptide text is derived from it. Bridges are numbered along the chain shown (N, C = ends). [ ]: non-standard residue; d: D form. The star is where a group is joined. X1 = O=C(CC1(S[*:2])CCCCC1)[*:1]; For = O=C*
Target: vasopressin receptors [V2 -receptors] (Sus scrofa, UniProt P32307)
Assay: biochemical
Text: Details of the in vitro protocols are in F. L. Stassen et al., J. of Pharm. Exp. Ther. 233, 50-54 (1982) but the calculations of cyclase activity and binding potential at the receptor site are as follows:
Test Procedure for Binding Assay:
These values represent total and non-specific binding, respectively.

Sequence of vasopressin receptors [V2 -receptors] (P32307 whole entry): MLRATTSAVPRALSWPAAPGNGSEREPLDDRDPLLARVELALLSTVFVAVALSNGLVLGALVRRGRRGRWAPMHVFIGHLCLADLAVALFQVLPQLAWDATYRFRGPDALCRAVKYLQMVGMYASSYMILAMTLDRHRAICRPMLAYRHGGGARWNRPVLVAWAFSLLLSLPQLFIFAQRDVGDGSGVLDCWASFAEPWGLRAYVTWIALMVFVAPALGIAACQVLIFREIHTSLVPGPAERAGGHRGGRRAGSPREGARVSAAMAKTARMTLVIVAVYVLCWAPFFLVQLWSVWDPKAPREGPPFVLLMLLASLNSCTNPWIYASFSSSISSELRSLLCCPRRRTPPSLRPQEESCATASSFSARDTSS

| Compound | Kb [µM] |
| --- | --- |
| CC(C)[C@@H]1NC(=O)[C@H](Cc2ccccc2)NC(=O)[C@@H](Cc2cn(C=O)c3ccccc23)NC(=O)CC2(CCCCC2)SSC[C@@H](C(=O)N2CCC[C@H]2C(=O)N[C@@H](CCCNC(=N)N)C(=O)NCC(N)=O)NC(=O)[C@H](CC(N)=O)NC1=O [D-Trp (For), [1-(β-mercapto-β,β-cyclopentamethylenepropionic acid)-2-D-tryptophan-(N-formyl)-4-valine-8-arginine]vasopressin] ([dW](For)FVNCPRG-NH2; linker N-5 via X1) | 0.078 |
| CC(C)[C@@H]1NC(=O)[C@H](Cc2ccccc2)NC(=O)[C@H](Cc2cn(C=O)c3ccccc23)NC(=O)CC2(CCCCC2)SSC[C@@H](C(=O)N2CCC[C@H]2C(=O)N[C@@H](CCCNC(=N)N)C(=O)NCC(N)=O)NC(=O)[C@H](CC(N)=O)NC1=O [L-Trp (For)] (W(For)FVNCPRG-NH2; linker N-5 via X1) | 0.84 |
| CC(C)[C@@H]1NC(=O)[C@H](Cc2ccccc2)NC(=O)[C@H](Cc2c[nH]c3ccccc23)NC(=O)CC2(CCCCC2)SSC[C@@H](C(=O)N2CCC[C@H]2C(=O)N[C@@H](CCCNC(=N)N)C(=O)NCC(N)=O)NC(=O)[C@H](CC(N)=O)NC1=O [L-Trp] (WFVNCPRG-NH2; linker N-5 via X1) | 2.1 |

From patent publication US4597901A, “β-indolylalanyl or β-indolylglycinyl vasopressin antagonists” (SmithKline Beckman Corporation, priority 1984, dated 1986)
